Source: ChEMBL document CHEMBL1129882, “Beta-amino acid derivatives as orally active non-peptide fibrinogen receptor antagonists” (Bioorg Med Chem Lett, 1997)

Legend:
[1] = species on record: Homo sapiens; assay: Tested in vitro for the inhibition of ADP-induced aggregation of human blood platelets; type: functional
[2] = molecular target: T1, Integrin alpha-IIb/beta-3 (Homo sapiens, UniProt P05106+P08514); assay: Inhibition of fibrinogen binding to immobilized human glycoprotein alpha IIb beta-3 integrin; type: protein-complex assay
T1 sequence (P05106 27-788 limits assumed): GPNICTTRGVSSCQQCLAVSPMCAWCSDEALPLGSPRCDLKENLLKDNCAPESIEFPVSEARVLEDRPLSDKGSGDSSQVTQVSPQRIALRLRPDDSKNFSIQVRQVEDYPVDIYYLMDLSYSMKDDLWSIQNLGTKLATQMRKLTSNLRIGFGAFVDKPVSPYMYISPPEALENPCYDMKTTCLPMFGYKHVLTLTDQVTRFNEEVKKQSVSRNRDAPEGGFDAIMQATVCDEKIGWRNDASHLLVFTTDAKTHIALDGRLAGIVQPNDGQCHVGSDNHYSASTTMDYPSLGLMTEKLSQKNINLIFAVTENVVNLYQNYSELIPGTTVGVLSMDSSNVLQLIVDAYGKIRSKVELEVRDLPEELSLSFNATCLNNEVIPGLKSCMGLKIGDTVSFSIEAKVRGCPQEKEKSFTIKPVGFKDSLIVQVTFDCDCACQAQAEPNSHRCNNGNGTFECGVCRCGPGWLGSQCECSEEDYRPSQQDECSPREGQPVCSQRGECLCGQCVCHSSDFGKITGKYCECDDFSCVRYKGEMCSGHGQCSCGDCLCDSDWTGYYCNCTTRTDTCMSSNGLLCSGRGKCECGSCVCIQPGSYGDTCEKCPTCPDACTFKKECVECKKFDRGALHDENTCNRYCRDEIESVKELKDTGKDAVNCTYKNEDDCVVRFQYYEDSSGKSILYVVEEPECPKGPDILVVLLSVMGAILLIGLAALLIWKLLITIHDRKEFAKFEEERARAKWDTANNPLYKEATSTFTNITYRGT
T1 sequence (P08514 32-887 limits assumed): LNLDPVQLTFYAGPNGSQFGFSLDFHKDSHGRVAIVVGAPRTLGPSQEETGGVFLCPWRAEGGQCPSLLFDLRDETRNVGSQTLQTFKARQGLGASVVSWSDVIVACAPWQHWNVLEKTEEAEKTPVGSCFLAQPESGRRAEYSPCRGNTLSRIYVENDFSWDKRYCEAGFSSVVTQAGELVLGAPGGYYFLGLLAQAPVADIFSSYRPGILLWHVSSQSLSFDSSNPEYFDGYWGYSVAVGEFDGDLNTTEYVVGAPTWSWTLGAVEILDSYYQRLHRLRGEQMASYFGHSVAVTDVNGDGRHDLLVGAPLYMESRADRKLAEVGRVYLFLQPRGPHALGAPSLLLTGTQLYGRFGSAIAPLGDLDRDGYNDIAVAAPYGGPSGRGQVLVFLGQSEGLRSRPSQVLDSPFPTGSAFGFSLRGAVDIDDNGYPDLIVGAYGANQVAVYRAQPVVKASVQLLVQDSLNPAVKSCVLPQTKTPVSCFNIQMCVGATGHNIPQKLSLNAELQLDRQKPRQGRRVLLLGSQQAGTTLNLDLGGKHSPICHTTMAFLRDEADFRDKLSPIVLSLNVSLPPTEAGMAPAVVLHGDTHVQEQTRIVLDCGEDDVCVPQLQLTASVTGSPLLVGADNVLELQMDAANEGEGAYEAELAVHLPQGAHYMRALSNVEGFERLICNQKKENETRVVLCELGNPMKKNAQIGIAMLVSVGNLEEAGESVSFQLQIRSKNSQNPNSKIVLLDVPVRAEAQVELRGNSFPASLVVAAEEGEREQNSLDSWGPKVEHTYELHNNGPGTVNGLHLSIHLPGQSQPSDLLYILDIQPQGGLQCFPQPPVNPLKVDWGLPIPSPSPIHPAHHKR
T1 sequence (P08514 891-1039 limits assumed): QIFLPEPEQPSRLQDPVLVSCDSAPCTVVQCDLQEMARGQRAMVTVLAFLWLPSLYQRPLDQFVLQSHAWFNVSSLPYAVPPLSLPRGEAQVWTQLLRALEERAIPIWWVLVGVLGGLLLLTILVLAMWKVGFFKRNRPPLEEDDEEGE

[3] = test system: Cavia porcellus; assay: Ex vivo platelet aggregation of compound was measured in guinea pig up to 5 hr after intraduodenal dose of 3 mg/kg; type: functional
[4] = test system: Cavia porcellus; assay: Ex vivo platelet aggregation of compound was measured in guinea pig up to 5 hr after intraduodenal dose of 1 mg/kg; type: functional
[5] = molecular target: T1, Integrin alpha-IIb/beta-3; assay: Inhibition of fibrinogen binding to GPllb/IIIa receptor; type: protein-complex assay
[6] = test system: Cavia porcellus; assay: Ex vivo platelet aggregation of compound was measured in guinea pig up to 5 hr after intraduodenal dose of 0.3 mg/kg; type: functional
[7] = test system: Cavia porcellus; assay: Ex vivo platelet aggregation of compound was measured in guinea pig up to 5 hr after intraduodenal dose of 10 mg/kg; type: functional

SMILES	IC50 [1]	IC50 [2]	inhibition in vivo at 3 mg/kg [3]	inhibition in vivo at 1 mg/kg [4]	IC50 [5]	inhibition in vivo at 0.3 mg/kg [6]	inhibition in vivo at 10 mg/kg [7]
Cc1ccc(S(=O)(=O)N[C@@H](CCCNC(=O)Cc2ccc(C(=N)N)cc2)C(=O)O)cc1	31000 nM	48000 nM					
N=C(N)c1ccc(CC(=O)NCCC[C@@H](CC(=O)O)NC(=O)CCC23C[C@H]4C[C@@H](C2)C[C@@H](C3)C4)cc1	61 nM	0.37 nM	10%				
COc1ccc(CCS(=O)(=O)N[C@H](CCCCNC(=O)c2ccc(C(=N)N)cc2)CC(=O)O)cc1	79 nM	1 nM					
CC(C)CC(=O)N[C@H](CCCCNC(=O)c1ccc(C(=N)N)cc1)CC(=O)O	15 nM	0.54 nM	75%	65%			
Cc1ccc(S(=O)(=O)N[C@@H](CCCNC(=O)OCc2ccccc2)C(=O)O)cc1 [ORNITHINE SULFONAMIDE]					20 µM		
N=C(N)c1ccc(CC(=O)NCCC[C@@H](CC(=O)O)NC(=O)CC23C[C@H]4C[C@@H](C2)C[C@@H](C3)C4)cc1	67 nM	2.2 nM					
N=C(N)c1ccc(C(=O)NCCCC[C@H](CC(=O)O)NC(=O)Cc2cccc3ccccc23)cc1	18 nM	0.36 nM		40%			
COc1ccc(CCC(=O)N[C@H](CCCCNC(=O)c2ccc(C(=N)N)cc2)CC(=O)O)cc1	18 nM	0.36 nM		90%		45%	
COc1ccc(CCC(=O)N[C@@H](CCCNC(=O)Cc2ccc(C(=N)N)cc2)CC(=O)O)cc1	31 nM	1.1 nM	10%	10%			
Cc1ccc(S(=O)(=O)N[C@@H](CCCNC(=O)Cc2ccc(C(=N)N)cc2)CC(=O)O)cc1	640 nM						10%
CC(C)CC(=O)N[C@@H](CCCNC(=O)Cc1ccc(C(=N)N)cc1)CC(=O)O	100 nM		75%	25%			
CC(C)CNC(=O)[C@@H](CCCNC(=O)Cc1ccc(C(=N)N)cc1)CC(=O)O	950 nM	7.9 nM					
